Measurements reported in ChEMBL document CHEMBL1132341, “Synthesis and characterization of fluorescent ligands for the norepinephrine transporter: potential neuroblastoma imaging agents” (J Med Chem, 1999).

System: SK-N-SH
Assay: Inhibition of [3H]NE uptake into human SK-N-SH-SY5Y Neuroblastoma cells
Format: functional, cell-based

CNCCC(NS(=O)(=O)c1cccc2c(N(C)C)cccc12)c1ccccc1 (stereo not drawn)
IC50: 370 nM

CNCCC(Nc1ccc([N+](=O)[O-])c2nonc12)c1ccccc1 (stereo not drawn)
IC50: 850 nM

CCOC(=O)[C@@H]1[C@H](O/C(S)=N/c2ccc(/N=N/c3ccc(N(C)C)cc3)cc2)C[C@H]2CC[C@@H]1N2C
IC50: 1320 nM

CCOC(=O)[C@@H]1[C@H](OS(=O)(=O)c2cccc3c(N(C)C)cccc23)C[C@H]2CC[C@@H]1N2C
IC50: 60 nM

N=C(N)NCCN1c2ccccc2C=Cc2ccccc21
IC50: 30 nM

N=C(N)NCc1cccc2ccccc12
IC50: 60 nM

CNCCC(/N=C(\S)Nc1ccc(/N=N/c2ccc(N(C)C)cc2)cc1)c1ccccc1 (stereo not drawn)
IC50: 1020 nM

N=C(N)NCc1ccc(/C=C/c2ccccc2)cc1
IC50: 120 nM
